According to PubChem BioAssay AID1745844 (Carcinogenic Potency Database (CPDB), 2022):
Calls of active or inactive are those of the source. How the calls were made is not given here.

System: rodent lifetime carcinogenesis bioassay, tumor incidence TD50
Assay: carcinogenic potency in animals, long-term in vivo studies, CPDB compilation (AID 1745844)

Cc1ccc2c(c1[N+](=O)[O-])C(=O)c1ccccc1C2=O
TD50 (mouse, strain B6C3F1, females, in feed, site: any site (literature study), lesion: several types, types named in the paper, dosed 49 weeks, study length 49 weeks): 1.76 mg/kg/day | TD50 (mouse, strain B6C3F1, females, in feed, site: lung, lesion: alveolar/bronchiolar adenoma + alveolar/bronchiolar carcinoma, dosed 49 weeks, study length 49 weeks): 97.3 mg/kg/day | TD50 (mouse, strain B6C3F1, females, in feed, site: subcutaneous tissue, lesion: hemangiosarcoma, dosed 49 weeks, study length 49 weeks): 1.88 mg/kg/day | TD50 (mouse, strain B6C3F1, males, in feed, site: any site (literature study), lesion: several types, types named in the paper, dosed 46 weeks, study length 46 weeks): 1.02 mg/kg/day | TD50 (mouse, strain B6C3F1, males, in feed, site: lung, lesion: alveolar/bronchiolar adenoma + alveolar/bronchiolar carcinoma, dosed 46 weeks, study length 46 weeks): 45.5 mg/kg/day | TD50 (mouse, strain B6C3F1, males, in feed, site: subcutaneous tissue, lesion: hemangiosarcoma, dosed 46 weeks, study length 46 weeks): 1.34 mg/kg/day | TD50 (rat, strain Fischer 344, females, in feed, site: any site (literature study), lesion: several types, types named in the paper, dosed 78 weeks, study length 109 weeks): 47.1 mg/kg/day | TD50 (rat, strain Fischer 344, females, in feed, site: liver, lesion: hepatocellular adenoma + hepatocellular carcinoma + neoplastic nodule, dosed 78 weeks, study length 109 weeks): 324 mg/kg/day | TD50 (rat, strain Fischer 344, females, in feed, site: liver, lesion: hepatocellular carcinoma + neoplastic nodule, dosed 78 weeks, study length 109 weeks): 324 mg/kg/day | TD50 (rat, strain Fischer 344, females, in feed, site: liver, lesion: hepatocellular carcinoma, dosed 78 weeks, study length 109 weeks): 547 mg/kg/day | TD50 (rat, strain Fischer 344, females, in feed, site: pituitary gland, lesion: adenoma, dosed 78 weeks, study length 109 weeks): 63.4 mg/kg/day | TD50 (rat, strain Fischer 344, females, in feed, site: stomach, lesion: squamous-cell carcinoma, dosed 78 weeks, study length 109 weeks): 507 mg/kg/day | TD50 (rat, strain Fischer 344, females, in feed, site: subcutaneous tissue, lesion: fibroma, dosed 78 weeks, study length 109 weeks): 131 mg/kg/day | TD50 (rat, strain Fischer 344, females, in feed, site: urinary bladder, lesion: papilloma, NOS + sarcoma, NOS + transitional-cell papilloma, dosed 78 weeks, study length 109 weeks): 224 mg/kg/day | TD50 (rat, strain Fischer 344, males, in feed, site: any site (literature study), lesion: several types, types named in the paper, dosed 78 weeks, study length 109 weeks): 31.9 mg/kg/day | TD50 (rat, strain Fischer 344, males, in feed, site: liver, lesion: hepatocellular adenoma + hepatocellular carcinoma + neoplastic nodule, dosed 78 weeks, study length 109 weeks): 48.8 mg/kg/day | TD50 (rat, strain Fischer 344, males, in feed, site: liver, lesion: hepatocellular carcinoma + neoplastic nodule, dosed 78 weeks, study length 109 weeks): 48.8 mg/kg/day | TD50 (rat, strain Fischer 344, males, in feed, site: liver, lesion: hepatocellular carcinoma, dosed 78 weeks, study length 109 weeks): 89.2 mg/kg/day | TD50 (rat, strain Fischer 344, males, in feed, site: liver, lesion: neoplastic nodule, dosed 78 weeks, study length 109 weeks): 133 mg/kg/day | TD50 (rat, strain Fischer 344, males, in feed, site: subcutaneous tissue, lesion: fibroma, dosed 78 weeks, study length 109 weeks): 25.8 mg/kg/day

OCCBr
TD50 (mouse, strain B6C3F1, females, in drinking water, site: any site (literature study), lesion: several types, types named in the paper, dosed 79 weeks, study length 79 weeks): 73.2 mg/kg/day | TD50 (mouse, strain B6C3F1, females, in drinking water, site: forestomach, lesion: squamous-cell papilloma, dosed 79 weeks, study length 79 weeks): 69.7 mg/kg/day | TD50 (mouse, strain B6C3F1, females, in drinking water, site: liver, lesion: hemangioma, dosed 79 weeks, study length 79 weeks): 800 mg/kg/day | TD50 (mouse, strain B6C3F1, females, in drinking water, site: lung, lesion: papillary tumor, dosed 79 weeks, study length 79 weeks): 1890 mg/kg/day | TD50 (mouse, strain B6C3F1, males, in drinking water, site: any site (literature study), lesion: several types, types named in the paper, dosed 78 weeks, study length 78 weeks): 86.6 mg/kg/day | TD50 (mouse, strain B6C3F1, males, in drinking water, site: forestomach, lesion: squamous-cell papilloma, dosed 78 weeks, study length 78 weeks): 83.9 mg/kg/day

OCCO
carcinogen call (mouse, strain B6C3F1, females, in feed, site: any site (literature study), lesion: several types, types named in the paper, dosed 103 weeks, study length 105 weeks): negative (inactive) | TD50 (mouse, strain B6C3F1, females, in feed, site: lung, lesion: alveolar/bronchiolar adenoma + alveolar/bronchiolar carcinoma, dosed 103 weeks, study length 105 weeks): 11300 mg/kg/day | TD50 (mouse, strain B6C3F1, males, in feed, site: Harderian gland, lesion: adenoma + carcinoma, dosed 103 weeks, study length 104 weeks): 19200 mg/kg/day (inactive) | TD50 (mouse, strain B6C3F1, males, in feed, site: any site (literature study), lesion: several types, types named in the paper, dosed 103 weeks, study length 104 weeks): 9980 mg/kg/day | TD50 (mouse, strain B6C3F1, males, in feed, site: liver, lesion: hepatocellular adenoma + hepatocellular carcinoma + neoplastic nodule, dosed 103 weeks, study length 104 weeks): 48100 mg/kg/day
